This data set can be described thus: Log of liquid dish neat product liquid-air partition coefficient. Type of data set: physicochemical. Particulars: for Log of liquid dish neat product liquid-air partition coefficient (Comment Code): code letters K/L of the Comment Code; for Log of liquid dish neat product liquid-air partition coefficient (Comment Code K/L): Comment Code letters K and/or L.

SMILES strings stand for the structures.

For the molecule `CC1=CC[C@@H]2[C@@]3(C)CCCC(C)(C)[C@@H]3CC[C@@]2(C)O1` [Material 1029], the “Comment Code: Log of liquid dish neat product liquid-air partition coefficient” value (shortened to “Comment Code: Log”) is listed as “K (Log of liquid dish neat product liquid-air partition coefficient greater than or equal to 7)” and the “Log of liquid dish neat product liquid-air partition coefficient (Comment Code)” value (shortened to “Log … (Comment Code)”) is “K (Log of liquid dish neat product liquid-air partition coefficient greater than or equal to 7)”.

Consider `CCCOC(=O)[C@H](C)OC(C)(C)CC` [Material 1030], for which the “Comment Code: Log” value is recorded as “K (Log of liquid dish neat product liquid-air partition coefficient greater than or equal to 7)”.

Regarding `CC(C)Cc1ccc(CC(C)C=O)cc1` (stereo not drawn) [Material 1033], the “Log … (Comment Code)” value is “K (Log of liquid dish neat product liquid-air partition coefficient greater than or equal to 7)”.

Take `C=C1CC[C@@H]2[C@H]([C@H]3[C@H]1CC[C@]3(C)O)C2(C)C` [Material 1035]: the “Comment Code: Log” value was “K (Log of liquid dish neat product liquid-air partition coefficient greater than or equal to 7)” and the “Log … (Comment Code)” value is on record as “K (Log of liquid dish neat product liquid-air partition coefficient greater than or equal to 7)”.

On to `CC1CCC2C(C2(C)C)C12COC(C)(C)OC2` (stereo not drawn) [Material 1036], for which the “Log … (Comment Code)” value is “K (Log of liquid dish neat product liquid-air partition coefficient greater than or equal to 7)”.

As for `C=CCCC(=O)C1=CCCC2(CCCC2)C1` [Material 1038], the “Comment Code: Log” value is recorded as “K (Log of liquid dish neat product liquid-air partition coefficient greater than or equal to 7)” and the “Log … (Comment Code)” value was “K (Log of liquid dish neat product liquid-air partition coefficient greater than or equal to 7)”.

For the molecule `CC(=O)OC(C)c1ccccc1` (stereo not drawn) [Material 1041], the “Comment Code: Log” value is “K (Log of liquid dish neat product liquid-air partition coefficient greater than or equal to 7)”.

Take `CCCCCCC/C=C\CCC=O` [Material 1045]: the “Log … (Comment Code)” value is “K (Log of liquid dish neat product liquid-air partition coefficient greater than or equal to 7)”.

`CC1=CC2C(C(C)C)CCC(C)(O)C2CC1` (stereo not drawn) [Material 1046]: the “Log … (Comment Code)” value is “K (Log of liquid dish neat product liquid-air partition coefficient greater than or equal to 7)”.

For `CC1=CC2C(C(C)C)CCC(C)(O)C2CC1` (stereo not drawn) [Material 1047], the “Log … (Comment Code)” value is listed as “K (Log of liquid dish neat product liquid-air partition coefficient greater than or equal to 7)”.

As for `CC(O)CCC1C(C)CCCC1(C)C` (stereo not drawn) [Material 1052], the “Comment Code: Log” value is “K (Log of liquid dish neat product liquid-air partition coefficient greater than or equal to 7)”.

On to `CCCC(O)CCC1C(C)CCCC1(C)C` (stereo not drawn) [Material 1063], for which the “Log … (Comment Code)” value is given as “K (Log of liquid dish neat product liquid-air partition coefficient greater than or equal to 7)”.

Regarding `CC(C)=CCC/C(C)=C/CC/C(C)=C/CO` [Material 1065], the “Log … (Comment Code)” value is listed as “K (Log of liquid dish neat product liquid-air partition coefficient greater than or equal to 7)”.

`CC/C=C\C/C=C/CCO` [Material 1072]: the “Log … (Comment Code)” value is “K (Log of liquid dish neat product liquid-air partition coefficient greater than or equal to 7)”.

`CC=CC(=O)C1C(C)=CCCC1(C)C` (stereo not drawn) [Material 1074]: the “Comment Code: Log” value is on record as “K (Log of liquid dish neat product liquid-air partition coefficient greater than or equal to 7)”.

As for `CC(C)=CCC/C(C)=C/CO` [Material 1082], the “Log … (Comment Code)” value is listed as “K (Log of liquid dish neat product liquid-air partition coefficient greater than or equal to 7)”.

Turning to `CCCCCC1C(=O)CCC1CC(=O)OC` (stereo not drawn) [Material 1083], the “Log … (Comment Code)” value is on record as “K (Log of liquid dish neat product liquid-air partition coefficient greater than or equal to 7)”.

Take `C/C=C/c1ccc(O)c(OC)c1` [Material 1084]: the “Comment Code: Log” value is reported as “K (Log of liquid dish neat product liquid-air partition coefficient greater than or equal to 7)”.

With `CCCCCCCCCCCCCO` [Material 1090], the “Log … (Comment Code)” value is given as “K (Log of liquid dish neat product liquid-air partition coefficient greater than or equal to 7)”.

`CC(=O)C1CC/C(C)=C\CC/C(C)=C\C/C=C/1C` (stereo not drawn) [Material 1095]: the “Log … (Comment Code)” value was “K (Log of liquid dish neat product liquid-air partition coefficient greater than or equal to 7)”.

For the molecule `CC1CC2CCC3C(C2O1)C(C)(C)C(C)C3(C)C` (stereo not drawn) [Material 1097], the “Comment Code: Log” value is given as “K (Log of liquid dish neat product liquid-air partition coefficient greater than or equal to 7)” and the “Log … (Comment Code)” value is “K (Log of liquid dish neat product liquid-air partition coefficient greater than or equal to 7)”.

For `CC1CC=CCCCCCCCC(=O)OCC1` (stereo not drawn) [Material 1099], the “Log … (Comment Code)” value is given as “K (Log of liquid dish neat product liquid-air partition coefficient greater than or equal to 7)”.

On to `CCCCCCCCCCC=O` [Material 1102], for which the “Log … (Comment Code)” value is recorded as “K (Log of liquid dish neat product liquid-air partition coefficient greater than or equal to 7)”.

On to `CCC=C(C)C(O)CCCCC` (stereo not drawn) [Material 1104], for which the “Log … (Comment Code)” value is on record as “K (Log of liquid dish neat product liquid-air partition coefficient greater than or equal to 7)”.

Take `C=C(C)[C@@H]1CCC2=CCC[C@@H](C)[C@]2(C)C1` [Material 1105]: the “Log … (Comment Code)” value was “K (Log of liquid dish neat product liquid-air partition coefficient greater than or equal to 7)”.

Take `C[C@@H]1CCC=C2CC[C@@H](C(C)(C)O)C[C@]21C` [Material 1107]: the “Comment Code: Log” value is “K (Log of liquid dish neat product liquid-air partition coefficient greater than or equal to 7)” and the “Log … (Comment Code)” value is given as “K (Log of liquid dish neat product liquid-air partition coefficient greater than or equal to 7)”.

As for `CC=Cc1ccc(OCC)c(O)c1` [Material 1112], the “Comment Code: Log” value is on record as “K (Log of liquid dish neat product liquid-air partition coefficient greater than or equal to 7)”.

Consider `COCc1ccc(O)c(OC)c1` [Material 1113], for which the “Log of liquid dish neat product liquid-air partition coefficient (Comment Code K/L)” value (“Log … (Comment Code K/L)” below) is “K (Log of liquid dish neat product liquid-air partition coefficient greater than or equal to 7)”.

Regarding `CC(C=O)=CCC1C(C)=CCCC1(C)C` (stereo not drawn) [Material 1116], the “Log … (Comment Code K/L)” value is reported as “K (Log of liquid dish neat product liquid-air partition coefficient greater than or equal to 7)”.

`COc1ccc(C=O)cc1OC` [Material 1118]: the “Comment Code: Log” value is reported as “K (Log of liquid dish neat product liquid-air partition coefficient greater than or equal to 7)”.

With `CC1CC(C)(c2ccccc2)OC(C)O1` (stereo not drawn) [Material 1126], the “Log … (Comment Code K/L)” value is “K (Log of liquid dish neat product liquid-air partition coefficient greater than or equal to 7)”.

Source of the values: patent publication US20170333591A9, “ABSORBENT ARTICLE COMPRISING MALODOR REDUCTION COMPOSITIONS” (The Procter & Gamble Company, priority 2014, published 2017).
